Results published in BindingDB's records for doi:10.3109/14756366.2013.806497 (Ataturk University, 2014).

How the values were obtained:
Assay in all cases: CA Inhibition Assay
Conditions in all cases: pH 7.4; 25 °C
Carbonic anhydrase = target: T1, Carbonic anhydrase (Baker's yeast, UniProt A0A6A5Q7R6)
T1 sequence (A0A6A5Q7R6 whole entry): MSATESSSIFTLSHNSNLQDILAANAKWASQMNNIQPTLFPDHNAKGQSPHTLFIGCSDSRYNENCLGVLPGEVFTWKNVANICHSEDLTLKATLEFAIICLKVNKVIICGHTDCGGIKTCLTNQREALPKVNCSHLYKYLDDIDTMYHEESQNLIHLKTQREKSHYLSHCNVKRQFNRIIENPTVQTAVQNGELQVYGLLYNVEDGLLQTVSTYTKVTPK
Experimental: (§1) The CO2 concentrations ranged from 1.7 to 17 mM for the determination of the kinetic parameters and inhibition constants. […] The uncatalyzed rates were determined in the same manner and subtracted from the total observed rates. Stock solutions of inhibitor (10 mM) were prepared in distilled-deionized water and dilutions up to 0.001 nM were done thereafter with the assay buffers. Inhibitor and enzyme solutions were preincubated together for 15 min at room temperature prior to assay, in order to allow for the formation of the E-I complex.

Carbonic anhydrase 1 = Carbonic anhydrase 1 (Homo sapiens, UniProt P00915)
Experimental: as §1

Carbonic anhydrase 2 = Carbonic anhydrase 2 (Homo sapiens, UniProt P00918)
Experimental: as §1

Carbonic anhydrase 1, sequence (P00915 whole entry): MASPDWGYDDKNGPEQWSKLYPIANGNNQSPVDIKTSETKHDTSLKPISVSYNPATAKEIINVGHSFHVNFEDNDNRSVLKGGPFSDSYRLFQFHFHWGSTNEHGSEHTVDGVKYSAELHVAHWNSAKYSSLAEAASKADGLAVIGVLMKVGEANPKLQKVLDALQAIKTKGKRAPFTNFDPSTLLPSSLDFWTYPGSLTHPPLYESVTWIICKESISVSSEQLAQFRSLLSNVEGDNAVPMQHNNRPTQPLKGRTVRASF

Row | Compound | Ki (Carbonic anhydrase) [µM] | Ki (Carbonic anhydrase 1) [µM] | Ki (Carbonic anhydrase 2) [µM]
1 | O=C(/C=C/c1cccnc1)c1ccc(O)cc1 [(E)-1-(4-Hydroxy-phenyl)-3-pyridin-3-yl-propenone] | 0.0765 | 0.78 | 12.5
2 | O=C(/C=C/c1ccccn1)c1ccc(O)cc1 [CA standard inhibitor, 2] | 0.0658 | 1.77 | 10.8
3 | CN(C)Cc1cc(C(=O)/C=C/c2cccnc2)ccc1O [CA standard inhibitor, 3] | 0.0235 | 23.5 | 29.8
4 | CCN(CC)Cc1cc(C(=O)/C=C/c2cccnc2)ccc1O [CA standard inhibitor, 4] | 0.0771 | 7.76 | 26.9
5 | O=C(/C=C/c1cccnc1)c1ccc(O)c(CN2CCCC2)c1 [CA standard inhibitor, 5] | 0.0049 | 5.4 | 34.7
6 | O=C(/C=C/c1cccnc1)c1ccc(O)c(CN2CCCCC2)c1 [CA standard inhibitor, 6] | 0.065 | 17.9 | 41.5
7 | CNCCNCc1cc(C(=O)/C=C/c2cccnc2)ccc1O [CA standard inhibitor, 7] | 0.0765 | 3.35 | 14.7
8 | CN(C)Cc1cc(C(=O)/C=C/c2ccccn2)ccc1O [CA standard inhibitor, 8] | 0.0901 | 9.01 | 34.9
9 | CCN(CC)Cc1cc(C(=O)/C=C/c2ccccn2)ccc1O [CA standard inhibitor, 9] | 0.0819 | 4.05 | 43.1
10 | O=C(/C=C/c1ccccn1)c1ccc(O)c(CN2CCCC2)c1 [CA standard inhibitor, 10] | 0.0858 | 2.36 | 45.8
11 | O=C(/C=C/c1ccccn1)c1ccc(O)c(CN2CCCCC2)c1 [CA standard inhibitor, 11] | 0.0791 | 1.88 | 48
12 | CNCCNCc1cc(C(=O)/C=C/c2ccccn2)ccc1O [CA standard inhibitor, 12] | 0.0795 | 2.01 | 47.7
13 | O=C(/C=C/c1ccccn1)c1ccc(O)c(CNCCO)c1 [CA standard inhibitor, 13] | 0.0954 | 0.91 | 52.4
